The source made the active and inactive calls. The rule behind the calls is not given here.

Mu-type opioid receptor (Homo sapiens) + Delta-type opioid receptor (Homo sapiens), sequence (P35372 whole entry, looked up): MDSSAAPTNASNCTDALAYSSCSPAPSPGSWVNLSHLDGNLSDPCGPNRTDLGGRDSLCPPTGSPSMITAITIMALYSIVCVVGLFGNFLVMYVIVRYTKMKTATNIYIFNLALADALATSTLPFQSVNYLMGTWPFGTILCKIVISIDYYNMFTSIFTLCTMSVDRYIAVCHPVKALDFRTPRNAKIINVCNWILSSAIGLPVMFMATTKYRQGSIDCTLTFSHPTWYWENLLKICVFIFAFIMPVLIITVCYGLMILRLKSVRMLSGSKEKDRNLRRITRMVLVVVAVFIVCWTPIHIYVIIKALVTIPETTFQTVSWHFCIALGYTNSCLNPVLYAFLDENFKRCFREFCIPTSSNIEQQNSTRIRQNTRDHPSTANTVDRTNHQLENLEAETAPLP
Mu-type opioid receptor (Homo sapiens) + Delta-type opioid receptor (Homo sapiens), sequence (P41143 whole entry, looked up): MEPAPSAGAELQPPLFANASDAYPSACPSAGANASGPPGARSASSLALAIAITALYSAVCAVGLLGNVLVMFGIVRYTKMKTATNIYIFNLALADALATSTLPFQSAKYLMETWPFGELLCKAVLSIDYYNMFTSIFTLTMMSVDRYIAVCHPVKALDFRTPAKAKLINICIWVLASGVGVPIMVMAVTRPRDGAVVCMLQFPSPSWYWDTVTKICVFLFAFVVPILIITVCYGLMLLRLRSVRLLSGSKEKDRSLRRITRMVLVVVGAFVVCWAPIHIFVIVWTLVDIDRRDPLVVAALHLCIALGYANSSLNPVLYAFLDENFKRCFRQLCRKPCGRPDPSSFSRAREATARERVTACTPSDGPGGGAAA

The experiment has as its target Mu-type opioid receptor (Homo sapiens) + Delta-type opioid receptor (Homo sapiens) (UniProt P35372+P41143). Nature of the experiment: agonists of MOR-DOR heterodimerization, dose response, cell-based, luminescence (AID 588407).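 Note: potency of agonists raising the heterodimer signal.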 Particulars: cells.
For orientation: EC50 means the concentration at which the effect is half-maximal. As for `OC(CNCCC(c1ccccc1)c1ccccc1)COc1ccccc1` (stereo not drawn), the EC50 result is “inactive”.

As for `CN(C)C(CNC(=O)c1ccc(C(F)(F)F)cc1)c1ccco1` (stereo not drawn), the EC50 was 7.74 µM.

With `Cc1nc(N2CCN(c3ccccn3)CC2)c2c(C)c(C(=O)N3CCN(c4ccc(F)cc4)CC3)sc2n1`, the EC50 was 2.2 µM.

On to `CCOC(=O)C1(CC2CCCCO2)CCN(Cc2c(C)cc(C)cc2-n2cccn2)CC1` (stereo not drawn), for which the EC50 is 0.53 µM.

Turning to `COc1ccc2c(Cl)c(-c3nnc(SCC(=O)c4ccccc4)n3C)sc2c1`, the EC50 is 0.942 µM.

Regarding `COc1ccc(CNCCc2c[nH]c3ccccc23)c(OC)c1C`, the EC50 result was “inactive”.

On to `Cc1ccc(C)c(-n2cc(CNC(C)Cn3cncn3)c(-c3ccccc3)n2)c1` (stereo not drawn), for which the EC50 entry is “inactive”.

For `CCOC(=O)C1(CCOc2ccccc2)CCN(Cc2cccn2-c2cccnc2)CC1`, the EC50 is 1.67 µM.

`O=C1C=C(c2c(O)ccc3ccccc23)c2ccccc2C1=O`: the EC50 is 9.82 µM.

Regarding `Cc1ccc(CC(=O)NCC(c2ccco2)N(C)C)cc1C` (stereo not drawn), the EC50 was 9.05 µM.

With `CC(=O)Nc1ccc(CN2CCCC(C(=O)c3cccc(C(F)(F)F)c3)C2)cc1` (stereo not drawn), the EC50 is 9.35 µM.

For `O=S(=O)(NC1CC1)c1ccc(S(=O)(=O)N2CCCC3(CCCCC3)C2)cc1`, the EC50 entry was “inactive”.

With `CCOC(=O)C1(CCc2ccccc2)CCN(Cc2ccc(NC(C)=O)cc2)CC1`, the EC50 is 0.227 µM.

Consider `COc1ccc(C(CNC(=O)c2ccc3c(c2)CCC3)N(C)C)cc1` (stereo not drawn), for which the EC50 is 0.0459 µM.

For `Cc1cccc(OCCC(=O)NCC(c2ccccc2)N(C)C)c1` (stereo not drawn), the EC50 entry was “inactive”.

Consider `CC(CC(=O)N(CCC1=CCCCC1)c1c(N)n(Cc2ccccc2)c(=O)[nH]c1=O)c1ccccc1` (stereo not drawn), for which the EC50 is > 92.5 µM (inactive).

`CN(C)CCCN(C(=O)c1ccc(S(=O)(=O)N2CCCCCC2)cc1)c1nc2c(F)cc(F)cc2s1`: the concentration giving a half-maximal response (EC50) is 5.86 µM.

Take `O=C(c1sc2ccccc2c1Cl)N(Cc1ccco1)C1CCS(=O)(=O)C1` (stereo not drawn): the EC50 result was “inactive”.

Consider `CN1C2C=C(N(CCc3c[nH]c4ccccc34)C(=O)c3ccc(Cl)cc3)CC1CC2` (stereo not drawn), for which the EC50 is 4.76 µM.

For `CC(C)n1ncc2c(C(=O)Nc3cccc(C#N)c3)cc(C3CC3)nc21`, the EC50 was 3.59 µM.

In the case of `CSCCC(/C(O)=C(\C#N)c1nc2ccccc2[nH]1)N1C(=O)c2ccccc2C1=O` (stereo not drawn), the EC50 is 9.92 µM.

Regarding `COc1ccc(C(CNC(=O)CSc2ccccc2C)N(C)C)cc1` (stereo not drawn), the EC50 is 4.56 µM.

For the molecule `CN(C)C(CNC(=O)c1cc2ccccc2o1)c1ccco1` (stereo not drawn), the EC50 is > 92.5 µM (inactive).

(Values after PubChem BioAssay AID588407 (The Scripps Research Institute Molecular Screening Center, 2011).)
